Assay results as given in US10495560B2, “Method of screening drugs” (KOREA RESEARCH INSTITUTE OF STANDARDS AND SCIENCE, priority 2015, dated 2019).

Assays:
[1] = system: ARPE-19 human retinal epithelial cells; test: Blind test: screening of drugs by capacitance of the cell layer; assay type: cell-based
Description: After culturing ARPE-19 (retinal pigmented epithelium, American Type Culture Collection (ATCC), ATCC® CRL-2302™), which is human retinal epithelial cells, instead of bEND.3 similarly to the case of using bEND.3, the cultured ARPE-19 was seeded in the same sensor as that used at the time of measuring bEND.3 so that coverage was 100%. Then, stabilization (fixation) was performed under the same conditions and time as those at the time of stabilizing bEND.3.
After the cells were cultured for stabilization for 24 hours, the culture medium was exchanged.
As the exchanged medium, a reference culture medium containing tumor necrosis factor-alpha (TNF-α, R&D system, 210-TA-020/CF, 10 ng/ml) or a reference culture medium containing tumor necrosis factor-alpha (TNF-α, R&D system, 210-TA-020/CF 10 ng/ml) and TNF-α antibody (Human TNF-alpha MAb, R&D system, MAB610, 2 μg/ml) was prepared. In this case, as the reference culture medium, DMEM:F12 containing 1 vol % penicillin-streptomycin (Gibco) was used similarly to the case of using bEND.3.
After stabilization was performed, medium exchange was randomly performed on each well using the prepared culture media. In this case, medium exchange was performed on a well (reference sample) at a predetermined position using a pure reference culture medium not containing TNF-α or TNF-α antibody, such that a frequency-dependent reference capacitance value at each measurement time was also simultaneously obtained.
Capacitance was measured under the same conditions and the same time interval as those in the case of using bEND.3.
After measurement was performed, in each well, in the case in which an absolute value of an alpha value at a time point (t=50 h based on stabilization) after 26 hours of medium exchange is smaller than an absolute value of a reference alpha value at the same time point, the drug was screened as a drug increasing paracellular permeability. […]

[2] = system: tight junction proteins (ZO-1) in ARPE-19 cells; test: Immunocytochemistry (ZO-1 and DAPI staining) after the blind test; assay type: cell-based, human; conditions: FIG. 9
Description: After performing the screening, as described above, fluorescent staining (using ZO-1 and DAPI) was performed on the endothelial cell layer fixed between two electrodes using immunocytochemistry, and then the endothelial cell layer was observed. FIG. 9A illustrates results of the reference sample, FIG. 9B illustrates results of the sample of which the medium was exchanged with the medium containing TNF-α, and FIG. 9C illustrates results of the sample of which the medium was exchanged with the medium containing both of TNF-α and TNF-α antibody.

TNF-α
standardized capacitance value ([1]; 100 Hz, standardized to start of stabilization, 48 hours after medium exchange (t=72 h), reference sample 1.44): 1.31 | time for which the standardized capacitance value was continuously decreased ([1]; 100 Hz, based on a time point (t=34 h) after 10 hours of medium exchange): 48 h | screening result (drug increasing paracellular permeability) ([1]; TNF-α 10 ng/ml, three independent criteria (alpha value at 26 h, standardized capacitance at 48 h, continuous decrease at 100 Hz)): screened as wells contacting the drug increasing paracellular permeability | alignment of tight junction proteins [2]: disturbed
